Assay [1] concerns patients with walking difficulties, proctoptosia, backaches, limb pains. The assay is described as follows: Tablets of Example 4 administered once a day to aged patients with muscle disorders. It counts as in vivo, human. The settings on record: single regular dose of drugs admixed with one of scymnol, isoflavone, and cholic acid. The source says: In Western medicine, it has been understood that proctoptosia and leg, lumbus and arm aches are attributable only to hematogenous disorders and resultant inflammation at local sites. […] Thus, it can be understood that these disorders are attributed to insufficient communication of brain commands to local sites and therefore the hematogenous disorders and onset of inflammation are problems caused by abnormal motions of muscles due to incomplete communication of brain commands.

A further assay has as its system adrenaline secretion. The assay is described as follows: Animal experiments using mice: secretomotory action on adrenaline (blood glucose levels). It counts as in vivo. The source says: No studies have been conducted on the efficacy of curcumin, zingerone, or shogaol on the stimulation of adrenaline secretion.

The values that follow come from patent US7799763B2, “Muscle-strengthening drugs and anti-inflammatory drugs” (Daicho Kikaku Incorporated Company, priority 2002, dated 2010).

Each structure is given as a SMILES string.

Turning to `C[C@H](CC[C@@H](O)C(CO)CO)C1CCC2C3C(C[C@H](O)[C@@]21C)[C@@]1(C)CC[C@@H](O)CC1C[C@H]3O` (some centres unmarked) [scymnol, Scymnol], the “effect on proctoptosia and leg, lumbus and arm aches” value in assay [1] is listed as “not significantly ameliorated”.

With `CCCCC/C=C/C(=O)CCc1ccc(O)c(OC)c1` [shogaol, (6)-shogaol], the “blood glucose levels (secretomotory action on adrenaline)” value (from here on “blood glucose levels”) with adrenaline secretion is given as “remarkably elevated”.

With `C[C@H](CCC(=O)O)[C@H]1CC[C@H]2[C@@H]3[C@H](O)C[C@@H]4C[C@H](O)CC[C@]4(C)[C@H]3C[C@H](O)[C@]12C` [cholic acid], the “effect on proctoptosia and leg, lumbus and arm aches” value in assay [1] was “not significantly ameliorated”.

For the compound `COc1cc(CCC(C)=O)ccc1O` [zingerone], the “blood glucose levels” value in the assay on adrenaline secretion is reported as “remarkably elevated”.

Regarding `COc1cc(/C=C/C(=O)/C=C(O)/C=C/c2ccc(O)c(OC)c2)ccc1O` [curcumin], the “blood glucose levels” value in the assay with adrenaline secretion is listed as “remarkably elevated”.
